Assay results from patent US20250161299A1, “ORAL PCLX-001 IN THE TREATMENT OF HUMAN CANCER” (PACYLEX PHARMACEUTICALS INC., priority 2022, published 2025).
Like-named read-outs stand apart in the source and are kept apart here.

Experiment: Phase I trial of oral PCLX-001: plasma pharmacokinetics, noncompartmental analysis (Phoenix WinNonlin 8.3)
Format: in vivo, human
Details: human, plasma
Source text: The clinical trial is entitled “Phase I Trial of PCLX-001 in B-cell Non-Hodgkin Lymphoma and Advanced Solid Malignancies” and registered at clinicaltrials.gov as NCT04836195. It is a phase I dose-escalation study of oral PCLX-001, conducted in a multicenter, non-randomized, open-label, non-controlled design. The study is comprised of two parts: Part A (single-agent dose escalation) and Part B (single-agent expansion cohorts).
Patients are to receive daily oral PCLX-001 on 28-day cycles, beginning with a starting dose of 20 mg.
[…] After dosing, the blood samples (volumes 3 mL) were serially collected into heparinized tubes from a right forearm butterfly cannula. All blood fluid specimens were frozen and later assayed using a validated UHPLC-MS detection method.
Noncompartmental pharmacokinetic analysis was performed using Phoenix WinNonlin 8.3 using trapezoidal rule and linear up log down methodology. WinNonlin was allowed to pick optimal terminal phases.
Nonparametric superposition was performed using Phoenix WinNonlin Nonparametric Superposition to predict steady state data based upon Day 1 data for each patient. It utilized the 8- and 24-hour time points for estimation of terminal phase for the purposes of this exercise. We simulated 20 mg daily oral dosing and simulations were conducted out to steady state. Results are show in FIGS. 5, 6, and 7.
In the non-compartmental analysis, Phoenix WinNonlin 8.3 trapezoidal rule was used, with linear up log down method. This allowed WinNonlin to pick optimal terminal phase (WinNonlin will accept Rsq adjusted to >0.7). Additional analysis to assess adequate fie included visual inspection of data, and AUCextrap should be <15%.
Phoenix WinNonlin 8.3 trapezoidal rule. Used linear up log down method. Allowed WinNonlin to pick optimal terminal phase (WinNonlin will accept Rsq adjusted >0.7).
Other analysis to assess adequate fit. Visual inspection of data. AUCextrap should be <15%.

[1] = oral, 140 mg, Table 4, not on Pantoprazole, 140 mg, N 1, Day 1
[2] = oral, 140 mg, Table 5, Mean (CV), on Pantoprazole, 140 mg, N 2, Day 1
[3] = oral, 140 mg, Table 5, Mean (CV), on Pantoprazole, 140 mg, N 2, Day 15
[4] = po, 20 mg, Table 1A, Patient 115-002-001 (Patient 1), Day 1, 20 mg oral daily
[5] = po, 20 mg, Table 1A, Patient 115-002-001 (Patient 1), Day 15, 20 mg oral daily
[6] = po, 20 mg, Table 1A, Patient 115-002-002 (Patient 2), Day 15, 20 mg oral daily
[7] = po, 20 mg, Table 1A, Patient 115-002-004 (Patient 3), Day 1, 20 mg oral daily
[8] = po, 20 mg, Table 1A, Patient 115-002-004 (Patient 3), Day 15, 20 mg oral daily

## Cc1c(NS(=O)(=O)c2c(Cl)cc(-c3ccnc(N4CCNCC4)c3)cc2Cl)c(CC(C)C)nn1C [PCLX-001, 2,6-dichloro-N-(3-isobutyl-1,5-dimethyl-1H-pyrazol-4-yl)-4-(2-(piperazin-1-yl)pyridin-4-yl)benzene sulfonamide]
oral, 70 mg, Table 4, not on Pantoprazole, 70 mg, N 1, Day 15
  Cmax: 629 ng/mL
oral, 70 mg, Table 4, not on Pantoprazole, 70 mg, N 1, Day 15, read-out: AUClast
  AUC(0-t): 7300 ng·h/mL
oral, 70 mg, Table 4, not on Pantoprazole, 70 mg, N 1, Day 15, read-out: Tmax
  Tmax: 4 h
oral, 70 mg, Table 5, Mean (CV), on Pantoprazole, 70 mg, N 2, Day 1
  Cmax: 283 ng/mL
oral, 70 mg, Table 5, Mean (CV), on Pantoprazole, 70 mg, N 2, Day 1, read-out: AUClast
  AUC(0-t): 3260 ng·h/mL
oral, 70 mg, Table 5, Mean (CV), on Pantoprazole, 70 mg, N 2, Day 15
  Cmax: 386 ng/mL
oral, 70 mg, Table 5, Mean (CV), on Pantoprazole, 70 mg, N 2, Day 15, read-out: AUClast
  AUC(0-t): 5760 ng·h/mL
oral, 70 mg, Table 5, median (min, max), on Pantoprazole, 70 mg, N 2, Day 1, read-out: Tmax
  Tmax: 6 h
oral, 70 mg, Table 5, median (min, max), on Pantoprazole, 70 mg, N 2, Day 15, read-out: Tmax
  Tmax: 6 h
oral, 100 mg, Table 4, Mean (CV), not on Pantoprazole, 100 mg, N 2, Day 15
  Cmax: 1340 ng/mL
oral, 100 mg, Table 4, Mean (CV), not on Pantoprazole, 100 mg, N 4, Day 1
  Cmax: 1770 ng/mL
oral, 100 mg, Table 4, Mean, not on Pantoprazole, 100 mg, N 2, Day 15, read-out: AUClast
  AUC(0-t): 17400 ng·h/mL
oral, 100 mg, Table 4, Mean, not on Pantoprazole, 100 mg, N 4, Day 1
  AUC(0-inf): 18000 ng·h/mL
oral, 100 mg, Table 4, Mean, not on Pantoprazole, 100 mg, N 4, Day 1, read-out: AUClast
  AUC(0-t): 15100 ng·h/mL
oral, 100 mg, Table 4, Mean, not on Pantoprazole, 100 mg, N 4, Day 1, read-out: t½ (converted)
  half-life: 7.26 h
oral, 100 mg, Table 4, median (min, max), not on Pantoprazole, 100 mg, N 2, Day 15, read-out: Tmax
  Tmax: 3 h
oral, 100 mg, Table 4, median (min, max), not on Pantoprazole, 100 mg, N 4, Day 1, read-out: Tmax
  Tmax: 2 h
oral, 100 mg, Table 4, not on Pantoprazole, 100 mg, N 2, Day 15, value from N = 1 patient
  AUC(0-inf): 19400 ng·h/mL
oral, 100 mg, Table 4, not on Pantoprazole, 100 mg, N 2, Day 15, value from N = 1 patient, read-out: t½ (converted)
  half-life: 7.56 h
oral, 140 mg, Table 4, Mean (CV), not on Pantoprazole, 140 mg, N 1, Day 15
  Cmax: 903 ng/mL
oral, 140 mg, Table 4, Mean, not on Pantoprazole, 140 mg, N 1, Day 15
  AUC(0-inf): 10700 ng·h/mL
oral, 140 mg, Table 4, Mean, not on Pantoprazole, 140 mg, N 1, Day 15, read-out: AUClast
  AUC(0-t): 7680 ng·h/mL
oral, 140 mg, Table 4, median (min, max), not on Pantoprazole, 140 mg, N 1, Day 15, read-out: Tmax
  Tmax: 1.5 h
[1]
  AUC(0-inf): 24200 ng·h/mL
  Cmax: 2710 ng/mL
oral, 140 mg, Table 4, not on Pantoprazole, 140 mg, N 1, Day 1, read-out: AUClast
  AUC(0-t): 21200 ng·h/mL
oral, 140 mg, Table 4, not on Pantoprazole, 140 mg, N 1, Day 1, read-out: Tmax
  Tmax: 0.5 h
oral, 140 mg, Table 4, not on Pantoprazole, 140 mg, N 1, Day 1, read-out: t½ (converted)
  half-life: 7.91 h
oral, 140 mg, Table 4, not on Pantoprazole, 140 mg, N 1, Day 15, read-out: t½ (converted)
  half-life: 13.8 h
[2]
  AUC(0-inf): 7830 ng·h/mL
  Cmax: 1300 ng/mL
oral, 140 mg, Table 5, Mean (CV), on Pantoprazole, 140 mg, N 2, Day 1, read-out: AUClast
  AUC(0-t): 7260 ng·h/mL
[3]
  AUC(0-inf): 10700 ng·h/mL
  Cmax: 903 ng/mL
oral, 140 mg, Table 5, Mean (CV), on Pantoprazole, 140 mg, N 2, Day 15, read-out: AUClast
  AUC(0-t): 7680 ng·h/mL
oral, 140 mg, Table 5, Mean, on Pantoprazole, 140 mg, N 2, Day 1, read-out: t½ (converted)
  half-life: 6.71 h
oral, 140 mg, Table 5, Mean, on Pantoprazole, 140 mg, N 2, Day 15, read-out: t½ (converted)
  half-life: 13.8 h
oral, 140 mg, Table 5, median (min, max), on Pantoprazole, 140 mg, N 2, Day 1, read-out: Tmax
  Tmax: 1 h
oral, 140 mg, Table 5, median (min, max), on Pantoprazole, 140 mg, N 2, Day 15, read-out: Tmax
  Tmax: 1.5 h
oral, Example 2, all dose groups, Days 1 and 15, read-out: Tmax, median (range)
  Tmax: 2 h
oral, Example 2, range across the dose groups (20 to 140 mg), read-out: t1/2
  half-life: 5.02 to 17.4 h
[4]
  AUC(0-inf): 2030 ng·h/mL
  Cmax: 353 ng/mL
po, 20 mg, Table 1A, Patient 115-002-001 (Patient 1), Day 1, 20 mg oral daily, read-out: AUClast or AUCtau
  AUC(0-t): 1710 ng·h/mL
po, 20 mg, Table 1A, Patient 115-002-001 (Patient 1), Day 1, 20 mg oral daily, read-out: Half-life (converted)
  half-life: 8.54 h
po, 20 mg, Table 1A, Patient 115-002-001 (Patient 1), Day 1, 20 mg oral daily, read-out: Tmax
  Tmax: 1 h
[5]
  AUC(0-inf): 3500 ng·h/mL
  Cmax: 479 ng/mL
po, 20 mg, Table 1A, Patient 115-002-001 (Patient 1), Day 15, 20 mg oral daily, read-out: AUClast or AUCtau
  AUC(0-t): 2730 ng·h/mL
po, 20 mg, Table 1A, Patient 115-002-001 (Patient 1), Day 15, 20 mg oral daily, read-out: Half-life (converted)
  half-life: 10.3 h
po, 20 mg, Table 1A, Patient 115-002-001 (Patient 1), Day 15, 20 mg oral daily, read-out: Tmax
  Tmax: 1 h
po, 20 mg, Table 1A, Patient 115-002-002 (Patient 2), Day 1, 20 mg oral daily
  Cmax: 127 ng/mL
po, 20 mg, Table 1A, Patient 115-002-002 (Patient 2), Day 1, 20 mg oral daily, read-out: AUClast or AUCtau
  AUC(0-t): 1300 ng·h/mL
po, 20 mg, Table 1A, Patient 115-002-002 (Patient 2), Day 1, 20 mg oral daily, read-out: Tmax
  Tmax: 4 h
[6]
  AUC(0-inf): 2520 ng·h/mL
  Cmax: 215 ng/mL
po, 20 mg, Table 1A, Patient 115-002-002 (Patient 2), Day 15, 20 mg oral daily, read-out: AUClast or AUCtau
  AUC(0-t): 2010 ng·h/mL
po, 20 mg, Table 1A, Patient 115-002-002 (Patient 2), Day 15, 20 mg oral daily, read-out: Half-life (converted)
  half-life: ~10 h
po, 20 mg, Table 1A, Patient 115-002-002 (Patient 2), Day 15, 20 mg oral daily, read-out: Tmax
  Tmax: 2 h
[7]
  AUC(0-inf): 1880 ng·h/mL
  Cmax: 304 ng/mL
po, 20 mg, Table 1A, Patient 115-002-004 (Patient 3), Day 1, 20 mg oral daily, read-out: AUClast or AUCtau
  AUC(0-t): 1780 ng·h/mL
po, 20 mg, Table 1A, Patient 115-002-004 (Patient 3), Day 1, 20 mg oral daily, read-out: Half-life (converted)
  half-life: 5.61 h
po, 20 mg, Table 1A, Patient 115-002-004 (Patient 3), Day 1, 20 mg oral daily, read-out: Tmax
  Tmax: 2 h
[8]
  AUC(0-inf): 2150 ng·h/mL
  Cmax: 295 ng/mL
po, 20 mg, Table 1A, Patient 115-002-004 (Patient 3), Day 15, 20 mg oral daily, read-out: AUClast or AUCtau
  AUC(0-t): 1910 ng·h/mL
